One data set relates to CYP2C9 mRNA. To be noted: primary human hepatocytes, three donors, 48 h exposure; PCB74 0.1 and 0.5 µM.
The target of data set [1] is HEK293 cells overexpressing CYP2C9 (Homo sapiens, UniProt P11712). As to conditions: 0.1, 0.5, 1 µM PCB74, 24 h, then 10 µM torsemide 24 h. The procedure:
(§1) CYP1A2 and CYP2C9 enzyme activity was first assessed using a luciferase-based P450-Glo™ screening system (Promega, Madison, WI, USA) following the manufacturer’s instructions. The reaction mixture consisted of 1 nM recombinant enzyme (CYP1A2 or CYP2C9), 250 µM luciferin–ME substrate, 0.1 M potassium phosphate buffer (pH 7.4), and an NADPH regeneration system (including NADP⁺, glucose-6-phosphate, MgCl₂, and glucose-6-phosphate dehydrogenase), in a total volume of 50 µL. Controls for enzyme inhibition included α-naphthoflavone (1 µM) for CYP1A2 and sulfaphenazole (2 µM) for CYP2C9. After preincubation at 37 °C for 10 min (excluding NADPH), the reaction was initiated by adding the NADPH regeneration system and incubated for 30 min. To terminate the reaction and generate luminescence, 50 µL of Luciferin Detection Reagent was added, followed by a 20-min incubation at room temperature. Luminescence was measured using a luminometer, with light intensity proportional to CYP activity. […] Enzyme activity was quantified relative to a d-luciferin standard curve and expressed as pmol luciferin/min/pmol CYP. […] Cells were maintained at 37 °C with 5% CO₂ throughout the experiment. […] Supernatants were transferred to LC–MS vials and analyzed for relevant metabolites. Details on metabolite quantification are provided in the supplemental file. […]

A further data set deals with recombinant CYP2C9 (Homo sapiens, UniProt P11712). To be noted: PCB74 1–10 µM; Luciferin–ME substrate. On the procedure:
as §1

A further data set has as its system CYP2D6. The data set is described as follows: CYP phenotyping cocktail clinical study: metoprolol/α-OH-metoprolol metabolic ratio and its association with PCB plasma levels. To be noted: linear regression of MR AUC0–8 h α-OH-metoprolol/metoprolol (CYP2D6 activity) on PCB plasma concentration. On the procedure: (§2) The participants were ascertained not to have any acute disease by medical history, physical examination, laboratory screening, including hematological and biochemical blood tests, and a 12-lead electrocardiogram. […] The demographic data of the subjects are summarized in Table 1 in the supplemental data. At the enrollment visit, 2 blood samples (9 ml each) were collected into ethylenediaminetetraacetic acid (EDTA)-containing tubes taken from each subject for analyzing the plasma concentrations of PCB congeners and for pharmacogenetic analysis.
(§3) Participants stayed fasted from the evening before until 3 h after drug administration. After that, a meal was provided. Water and juice were permitted but alcoholic and caffeinated beverages were not allowed from the evening before drug administration until the last blood sample was taken on the next day. Venous blood samples (9 ml each) were collected through an intravenous catheter immediately before and 0.25, 0.5, 0.75, 1, 1.5, 2, 2.5, 3, 4, 5, 6, 7, 8, and 24 h after drug administration. Blood was drawn into EDTA-coated tubes, centrifuged at 1500 g for 10 min at 4 °C, and plasma samples were subsequently stored at − 80 °C until further analysis. After completely voiding the bladder immediately before drug administration, the participants collected urine from 0 to 24 h after drug administration. After weighing the collected urine, a 10 ml aliquot of each fraction was taken.
(§4) Commercially sourced standards and internal standards were used for quantification (see Supplemental Materials). In brief, 20 µl of the plasma samples were protein-precipitated with 80 µl methanol containing all internal standards or were treated for 16 h at 37 °C with 2 µl β-glucuronidase (1,000,000 Units) for deconjugation before protein precipitation with 78 µl methanol containing internal standards. Samples were centrifuged for 20 min, at 4 °C and 17,000 × g, and 40 µl of the supernatants were diluted with 40 µl LC–MS grade water, centrifuged again for 5 min at 4 °C and 17,000 × g and 50 µl supernatant were transferred to LC–MS vials 5 µl of the samples were injected into the LC–MS system.
(§5) An Agilent 1290 Infinity II UHPLC coupled with a SCIEX QTRAP6500 + triple quadrupole mass spectrometer was used. Chromatographic separation was achieved on an Agilent Poroshell 120 EC-C18 (1.9 µm, 2.1 × 50 mm) column with A: 0.1% formic acid in water and B: methanol with a flow rate of 0.7 ml/min and a total run time of 8.5 min. Analytes were eluted using a gradient program. The following gradient steps represent gradual changes in % B over time: 5% B from 0 to 0.2 min, 30% B at 2 min, 34% B at 4.8 min, 95% B at 6.5 min, 95% B at 7.5 min and re-equilibrating to 5% B at 7.7 min and 5%B till 8.5 min. A representative chromatogram is shown in supplemental Fig. 2. The scheduled MRM mode was applied for analyte detection in both positive and negative ESI modes (Supplementary Table 4). Calibration curves were constructed with linear regression using weighted (1/x^2) models (detailed information in supplemental methods).
(§6) Partial areas under the plasma concentration–time curves from 0 to 3 h (AUC0–3 h), from 0 to 4 h (AUC0–4 h), and from 0 to 8 h (AUC0–8 h) were calculated based on measured concentrations by the linear trapezoidal rule without extrapolation. […] Metabolic ratios (MR) were calculated by dividing the partial AUC of the metabolite by the respective partial AUC of the parent drug. The MRs were used as biomarkers for the individual CYP activities of the study subjects.

Data set [2] in a line: Determination of PCB concentrations in plasma of HELPcB and control participants. It is filed as in vivo. To be noted: human plasma. The procedure:
The laboratory regularly participates in round robins for the determination of PCBs in plasma (www.g-equas.de).
Plasma concentrations of PCB congeners were quantified in blood samples from all participants using gas chromatography/mass spectrometry (GC–MS) (Fig. 2A and Supplementary Table 2). A total of 19 PCB congeners were measured in control (n = 10) and HELPcB (n = 10) participants, with PCBs detected in all individuals. […] In the control group, PCB plasma concentrations primarily reflected background environmental exposure, such as dietary intake, representing the general population’s burden.

The test system of data set [3] is CYP2C9. The data set is described as follows: CYP phenotyping cocktail clinical study: torsemide/OH-torsemide metabolic ratio and its association with PCB plasma levels. On the procedure:
as §2, §3, §4, §5, §6

For another data set, the system named is CYP2B6. The data set is described as follows: CYP phenotyping cocktail clinical study: efavirenz/8-OH-efavirenz metabolic ratio and its association with PCB plasma levels. As to conditions: linear regression of MR AUC0–8 h 8-OH-efavirenz/efavirenz (CYP2B6 activity) on PCB plasma concentration. The procedure: as §2, §3, §4, §5, §6
Another data set has as its system CYP1A2. On the set-up: method as in Solan and Lavado [2023]. To be noted: ref Solan and Lavado [2023]; cited from earlier work.
Data set [4] in a line: Stability of substrates and metabolites in quality control samples (benchtop, autosampler, freeze-thaw). It is filed as physicochemical. As to conditions: for Autosampler stability (24 h) Av. Accuracy (%): 10° C for 24 hours in the autosampler; for 3x freeze-thaw Av. Accuracy (%): after three freeze-thaw cycles; for Benchtop stability (19 h) Ac. Accuracy (%): room temperature for 19 hours. An excerpt:
The method was validated for intra- and interday accuracy and precision, stability, and matrix effects. […] Validation details are provided in Supplementary Tables 5–7 and supplemental Fig. 3. Glucuronidase/sulfatase digests were used to isolate CYP-specific metabolic activities, reducing interference from polymorphic UDP-glucuronosyltransferase (UGT) and sulfotransferase isoforms.
Supplemental table 6: Stability of the substrates and metabolites. Quality control samples were left at room temperature for 19 hours (benchtop stability) and at 10° C for 24 hours in the autosampler (autosampler stability) or were measured after three freeze-thaw cycles. Stability samples were measured against a freshly prepared set of calibrators and quality control samples.

The next data set deals with CYP1A2 mRNA. The data set is described as follows: CYP1A2 mRNA expression in primary human hepatocytes (qRT-PCR). As to conditions: three donors, 48 h exposure, PCB118 0.1–0.5 µM, omeprazole positive control. It is filed as cell-based. (In general: In qPCR the cycle at which signal appears reflects the starting amount.)
For data set [5], the system named is CYP2C9. On the set-up: method as in Makia et al. [2014]. To be noted: cFos and JunD binding to CYP2C9 promoter; ref Makia et al. [2014]; cited from earlier work.
[6] abbreviates: linear regression of MR AUC0–8 h OH-torsemide/torsemide (CYP2C9 activity) on PCB plasma concentration.

Chain of HEK293 cells overexpressing CYP2C9 (P11712 whole entry): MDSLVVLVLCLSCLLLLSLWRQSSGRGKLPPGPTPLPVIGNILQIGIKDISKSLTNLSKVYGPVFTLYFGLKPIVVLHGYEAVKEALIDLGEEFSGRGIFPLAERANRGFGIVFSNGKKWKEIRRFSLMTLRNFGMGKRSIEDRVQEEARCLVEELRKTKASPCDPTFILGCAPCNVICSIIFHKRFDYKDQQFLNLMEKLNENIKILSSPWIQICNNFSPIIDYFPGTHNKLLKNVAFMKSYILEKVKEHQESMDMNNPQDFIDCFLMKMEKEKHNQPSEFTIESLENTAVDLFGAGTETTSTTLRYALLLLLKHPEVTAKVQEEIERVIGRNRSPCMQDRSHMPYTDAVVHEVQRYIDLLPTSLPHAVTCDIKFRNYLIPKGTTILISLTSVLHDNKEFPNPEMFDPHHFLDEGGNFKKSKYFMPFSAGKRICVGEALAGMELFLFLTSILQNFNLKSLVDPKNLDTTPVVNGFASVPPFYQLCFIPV
Chain of recombinant CYP2C9 (P11712 whole entry): as above

For `Clc1ccc(-c2cc(Cl)c(Cl)cc2Cl)cc1` [PCB74], the “effect on CYP2C9 mRNA expression” value in the data set on CYP2C9 mRNA was “did not significantly increase CYP2C9 mRNA expression”. The “effect on CYP2C9 activity in HEK293 cells (torsemide probe)” value in [1] was “did not significantly modulate CYP2C9 activity”. Further, at recombinant CYP2C9, the “effect on CYP2C9 enzyme activity (luminescence)” value was “remained unaffected”. Moreover, the t value with CYP2D6 is 1,723; in the data set on CYP2C9 [3] (setting [6]) it was 1,826; with CYP2C9 [3] (linear regression of MR AUC0–8 h OH-torsemide/torsemide (CYP2C9 activity) on PCB plasma concentration, PM excl), 1,723; with CYP2B6, 0,808; with CYP2B6 (PM excl) it was 0,622. The “β (standardized regression coefficient)” value with CYP2D6 is 0,376; in the data set on CYP2C9 [3] (setting [6]) it was 0,395; with CYP2B6, 0,204; with CYP2B6 (PM excl), 0,170. Besides, the “PCB plasma concentration, Mean [±SD] HELPcB” value in [2] (HELPcB (occupationally exposed) group) stood at 0.129 ± 0.121 ng/mL. Further, in data set [2] (HELPcB group, N 10), the “PCB plasma concentration, Geometric mean, HELPcB” value is 0.086 ng/mL. Further, the “PCB plasma concentration, Mean [±SD] all” value in data set [2] (all participants) is 0.071 ± 0.102 ng/mL. In addition, in data set [2] (control group (background exposure)), the “PCB plasma concentration, Mean [±SD] control” value was 0.014 ± 0.011 ng/mL. Moreover, in data set [2] (control group, N 10), the “PCB plasma concentration, Geometric mean, Control” value was determined as 0.010 ng/mL. Moreover, the “association with CYP2C9 activity in hierarchical generalized mixed model” value in the data set on CYP2C9 [3] (adjusted for co-factors (smoking status, gender, BMI, age)) is listed as “became significant when BMI, gender, or all factors were included as co-factors”.

For the compound `O=S(=O)(O)C(F)(F)C(F)(F)C(F)(F)C(F)(F)C(F)(F)C(F)(F)C(F)(F)C(F)(F)F` [PFOS], in the data set with CYP1A2, the “effect on CYP1A2 activity” value is “inhibits CYP1A2 activity”.

With `COc1ccc2[nH]c([S+]([O-])Cc3ncc(C)c(OC)c3C)nc2c1` (stereo not drawn) [omeprazol, omeprazole, reference compound], the “Autosampler stability (24 h) Av. Accuracy (%)” value in data set [4] (QC conc. 0,5 ng/ml) is 114,94%; in [4] (QC conc. 0,25 ng/ml), 102,23%; in [4] (QC conc. 60 ng/ml), 111,22%; in [4] (QC conc. 150 ng/ml), 103,07%; in data set [4] (QC conc. 1,5 ng/ml), 114,49%. Also, the “3x freeze-thaw Av. Accuracy (%)” value in data set [4] (QC conc. 0,5 ng/ml) is reported as 112,03%; in data set [4] (QC conc. 0,25 ng/ml), 112,67%; in data set [4] (QC conc. 60 ng/ml), 106,21%; in data set [4] (QC conc. 150 ng/ml), 105,55%; in [4] (QC conc. 1,5 ng/ml), 111,42%. Further, the “Benchtop stability (19 h) Ac. Accuracy (%)” value is on record as 117,42% in [4] (QC conc. 0,5 ng/ml); 91,86% in data set [4] (QC conc. 0,25 ng/ml); 112,32% in data set [4] (QC conc. 60 ng/ml); 104,38% in data set [4] (QC conc. 150 ng/ml); 115,14% in data set [4] (QC conc. 1,5 ng/ml). In addition, the “effect on CYP1A2 mRNA expression” value in the data set on CYP1A2 mRNA is on record as “strongly upregulated CYP1A2 expression”.

Turning to `CC(C)(C)c1cc(O)ccc1O` [tBHQ, tert-butylhydroquinone], in the data set with CYP2C9 [5], the “effect on CYP2C9 expression” value was “induces CYP2C9 expression via AP-1 activation”.

(Values after article PMC12477080, “Polychlorinated biphenyls (PCBs) interact with drug metabolism in vivo” (Archives of Toxicology, 2025).)
